Active and inactive are the calls of the source. No cut-off for these calls is given here.
Columns and labels:
[1] = biological target: T1, Serine/threonine-protein kinase TAO2 (Homo sapiens) (UniProt Q9UL54); experiment: Inhibition of TAO2 K2 labeling site in human Huh-7 cells at 10 uM by KiNativ Profiling analysis relative to control; assay type: cell-based
T1 sequence (whole entry): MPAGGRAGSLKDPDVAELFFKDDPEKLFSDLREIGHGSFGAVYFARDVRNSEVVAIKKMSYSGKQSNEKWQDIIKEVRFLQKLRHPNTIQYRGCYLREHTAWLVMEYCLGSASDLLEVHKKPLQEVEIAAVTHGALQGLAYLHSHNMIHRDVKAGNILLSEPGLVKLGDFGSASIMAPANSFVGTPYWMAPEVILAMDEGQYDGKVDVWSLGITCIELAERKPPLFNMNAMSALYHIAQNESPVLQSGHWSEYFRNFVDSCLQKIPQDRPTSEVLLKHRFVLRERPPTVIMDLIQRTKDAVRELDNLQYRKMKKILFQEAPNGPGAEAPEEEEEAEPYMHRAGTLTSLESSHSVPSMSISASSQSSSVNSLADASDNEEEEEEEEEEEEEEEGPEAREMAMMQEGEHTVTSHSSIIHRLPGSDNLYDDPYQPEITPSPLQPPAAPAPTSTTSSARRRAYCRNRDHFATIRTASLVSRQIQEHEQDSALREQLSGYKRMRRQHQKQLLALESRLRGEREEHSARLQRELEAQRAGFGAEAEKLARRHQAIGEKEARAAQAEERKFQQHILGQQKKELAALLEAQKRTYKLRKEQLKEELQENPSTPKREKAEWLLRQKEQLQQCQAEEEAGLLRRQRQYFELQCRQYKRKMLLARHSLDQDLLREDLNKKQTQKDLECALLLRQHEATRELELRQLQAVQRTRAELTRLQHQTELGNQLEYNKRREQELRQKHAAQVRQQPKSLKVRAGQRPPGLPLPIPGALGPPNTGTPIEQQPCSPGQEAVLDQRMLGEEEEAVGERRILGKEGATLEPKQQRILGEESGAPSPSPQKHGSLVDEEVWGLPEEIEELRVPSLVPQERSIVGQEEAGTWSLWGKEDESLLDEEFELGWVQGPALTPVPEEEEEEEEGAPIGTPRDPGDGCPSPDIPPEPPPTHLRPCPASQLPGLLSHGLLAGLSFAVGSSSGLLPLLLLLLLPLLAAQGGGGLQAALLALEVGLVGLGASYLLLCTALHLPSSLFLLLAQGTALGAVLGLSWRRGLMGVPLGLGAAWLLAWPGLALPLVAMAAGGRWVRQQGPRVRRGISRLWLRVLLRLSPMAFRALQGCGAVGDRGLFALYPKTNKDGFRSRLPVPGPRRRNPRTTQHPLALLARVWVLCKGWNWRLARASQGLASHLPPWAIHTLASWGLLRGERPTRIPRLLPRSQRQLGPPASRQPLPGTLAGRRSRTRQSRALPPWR

[2] = biological target: Ribosomal protein S6 kinase alpha-1 (Homo sapiens) (UniProt Q15418); experiment: Inhibition of RSK1 domain1 Lys1 labeling site in human A-375 cells at 5 uM by KiNativ Profiling analysis relative to control; assay type: cell-based
Ribosomal protein S6 kinase alpha-1 (Homo sapiens), sequence (Q15418 whole entry, the tested form may be a part): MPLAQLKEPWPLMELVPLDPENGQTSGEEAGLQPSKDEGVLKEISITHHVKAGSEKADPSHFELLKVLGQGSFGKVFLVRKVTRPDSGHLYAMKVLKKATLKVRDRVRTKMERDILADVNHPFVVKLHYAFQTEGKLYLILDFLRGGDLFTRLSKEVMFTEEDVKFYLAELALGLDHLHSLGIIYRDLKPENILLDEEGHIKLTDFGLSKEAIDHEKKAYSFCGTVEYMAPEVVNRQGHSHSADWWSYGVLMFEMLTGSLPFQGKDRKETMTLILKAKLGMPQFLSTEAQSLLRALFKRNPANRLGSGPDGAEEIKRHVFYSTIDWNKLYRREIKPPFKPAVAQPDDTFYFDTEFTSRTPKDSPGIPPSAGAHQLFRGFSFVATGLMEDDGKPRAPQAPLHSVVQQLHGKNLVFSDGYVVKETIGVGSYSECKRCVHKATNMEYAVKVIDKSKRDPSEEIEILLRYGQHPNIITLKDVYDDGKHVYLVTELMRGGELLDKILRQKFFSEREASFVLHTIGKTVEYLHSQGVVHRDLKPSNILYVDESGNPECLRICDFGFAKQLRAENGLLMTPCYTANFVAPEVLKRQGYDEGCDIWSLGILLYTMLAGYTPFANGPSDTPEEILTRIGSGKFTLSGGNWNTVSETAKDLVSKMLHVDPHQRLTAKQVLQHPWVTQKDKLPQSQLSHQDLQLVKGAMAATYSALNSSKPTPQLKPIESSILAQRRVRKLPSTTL

[3] = Inhibition of PKD1/2 K2 labeling site in human Huh-7 cells at 1 uM by KiNativ Profiling analysis relative to control; conditions: condition cancer
[4] = biological target: Serine/threonine-protein kinase Nek6 (Homo sapiens) (UniProt Q9HC98); experiment: Inhibition of NEK6 (unknown origin) at 10 uM by Ambit Kinomescan binding assay
Serine/threonine-protein kinase Nek6 (Homo sapiens), sequence (Q9HC98 whole entry): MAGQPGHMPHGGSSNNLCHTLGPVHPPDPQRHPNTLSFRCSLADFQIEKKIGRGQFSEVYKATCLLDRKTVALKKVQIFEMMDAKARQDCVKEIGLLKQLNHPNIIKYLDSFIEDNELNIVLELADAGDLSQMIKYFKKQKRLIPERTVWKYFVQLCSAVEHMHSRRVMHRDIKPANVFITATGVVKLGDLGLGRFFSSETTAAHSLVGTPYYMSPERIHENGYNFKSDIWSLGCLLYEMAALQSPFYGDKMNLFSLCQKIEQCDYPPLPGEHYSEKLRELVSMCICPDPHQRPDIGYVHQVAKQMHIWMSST

[5] = biological target: T2, Serine/threonine-protein kinase TBK1 (Homo sapiens) (UniProt Q9UHD2); experiment: Inhibition of TBK1 Lys2 labeling site in human Huh-7 cells at 1 uM by KiNativ Profiling analysis relative to control; assay type: cell-based
T2 sequence (whole entry): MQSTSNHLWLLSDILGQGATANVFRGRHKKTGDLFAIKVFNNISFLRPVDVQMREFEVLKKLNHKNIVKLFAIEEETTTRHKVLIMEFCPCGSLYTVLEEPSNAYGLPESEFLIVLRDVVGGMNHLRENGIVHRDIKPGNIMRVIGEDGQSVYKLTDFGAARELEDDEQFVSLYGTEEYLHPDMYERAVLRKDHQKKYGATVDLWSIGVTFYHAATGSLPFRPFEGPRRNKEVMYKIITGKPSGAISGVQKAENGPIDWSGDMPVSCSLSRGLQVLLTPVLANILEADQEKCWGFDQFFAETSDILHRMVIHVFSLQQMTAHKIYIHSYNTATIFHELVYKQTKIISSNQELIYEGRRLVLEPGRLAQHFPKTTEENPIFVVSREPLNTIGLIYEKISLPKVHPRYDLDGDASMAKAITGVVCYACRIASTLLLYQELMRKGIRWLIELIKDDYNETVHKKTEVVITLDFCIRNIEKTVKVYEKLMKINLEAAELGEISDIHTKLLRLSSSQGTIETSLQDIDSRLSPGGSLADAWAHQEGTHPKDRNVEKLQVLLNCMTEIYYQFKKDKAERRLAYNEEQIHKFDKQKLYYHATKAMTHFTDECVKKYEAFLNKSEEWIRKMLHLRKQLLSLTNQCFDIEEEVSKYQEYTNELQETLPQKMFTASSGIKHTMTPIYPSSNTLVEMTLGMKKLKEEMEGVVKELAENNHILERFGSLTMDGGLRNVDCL

CCN1CCN(Cc2ccc(NC(=O)c3ccc(C)c(Oc4ccnc5[nH]ccc45)c3)cc2C(F)(F)F)CC1 gave an inhibition [1] of 28.6%, an inhibition [2] of -8.6% and an inhibition at 1 µM [3] of -9.2%. The inhibition [4] was “inactive”.

In the case of CNc1cc(Oc2cc(C(=O)Nc3cc(N4CCN(C)CC4)cc(C(F)(F)F)c3)ccc2C)ncn1, the inhibition [5] is reported as 17.7%.

Source: ChEMBL document CHEMBL5696442, “Discovery of type II inhibitors of TGFβ-activated kinase 1 (TAK1) and mitogen-activated protein kinase kinase kinase kinase 2 (MAP4K2)” (J Med Chem, 2015)
